# Reference: US20060241172A1, “Benzodioxane and benzodioxolane derivatives and uses thereof” (Wyeth, priority 2005, published 2006)
# Tests used:
# [1] = target: T1, human 5-hydroxytryptamine-2C (h5-HT2C) receptor (Homo sapiens, UniProt P28335); experiment: 5-HT2C binding: [125I]DOI displacement in membranes of transfected CHO cells; conditions: read-out: 5-HT2C Binding Ki avg
# T1 construct: expressed in transfected cells; host or cells: CHO (Chinese Hamster Ovary) cells; membranes
# T1 sequence (P28335 33-458): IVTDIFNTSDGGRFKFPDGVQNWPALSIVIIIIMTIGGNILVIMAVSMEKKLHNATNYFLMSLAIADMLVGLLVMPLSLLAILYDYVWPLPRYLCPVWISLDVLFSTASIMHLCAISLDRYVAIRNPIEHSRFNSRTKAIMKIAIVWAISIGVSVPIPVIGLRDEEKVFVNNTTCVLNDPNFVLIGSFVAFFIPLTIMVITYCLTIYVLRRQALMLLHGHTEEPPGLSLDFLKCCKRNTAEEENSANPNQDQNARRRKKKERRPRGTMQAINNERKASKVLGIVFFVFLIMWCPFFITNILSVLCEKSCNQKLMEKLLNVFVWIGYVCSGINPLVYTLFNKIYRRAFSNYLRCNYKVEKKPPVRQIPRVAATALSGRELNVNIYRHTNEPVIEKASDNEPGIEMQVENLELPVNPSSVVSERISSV
# [2] = target: T2, human 5-HT2C receptor (Homo sapiens, UniProt P28335); experiment: 5-HT2C receptor-stimulated calcium mobilization (FLIPR) in CHO cells; assay type: cell-based; conditions: for Emax: CHO, read-out: 5-HT2C Function EMax (%); for EC50: read-out: 5-HT2C Function EC50
# T2 sequence (P28335 33-458): T1 sequence (P28335 33-458)
# [3] = tested on: male C57BL/6J mice and lean Zucker rats; experiment: Obesity Model A: acute food intake after overnight fast, oral dosing; assay type: in vivo
# Description: To evaluate acute in vivo efficacy of various compounds, 7 weeks-old male C57BL/6J mice were obtained from The Jackson Laboratory (Bar Harbor, Me.) and 6 weeks-old lean Zucker rats were purchased from Charles River Laboratories (Wilmington, Mass.). Mice and rats were single housed in a temperature-controlled (25° C.) facility with a 12-h light/dark cycle. Animals were allowed normal chow diet (Rodent chow #5001, PharmaServ, Framingham, Mass.) and water ad libitum. After one week acclimation, animals were randomized to vehicle (saline) or treatment groups. Animals were fasted overnight (16 hrs) and orally dosed with vehicle or compounds. Thirty minutes after compound administration, animals were given a weighed amount of food, and food intake was recorded 30 minutes, 1 h, 2 h, 4 h, 7 h and 24 h after refeeding.
# [4] = target: T3, human serotonin 5-HT2C receptor (Homo sapiens, UniProt P28335); experiment: Saturation binding of [125I] DOI; conditions: saturation binding with increasing concentrations of [125I] DOI; read-out: dissociation constant, KD
# T3 construct: expressed in transfected cells; host or cells: CHO (Chinese Hamster Ovary) cells; membranes
# T3 sequence (P28335 33-458): T1 sequence (P28335 33-458)
# Description: DOI. The reaction was initiated by the final addition of 100 μL of tissue suspension containing 50 μg of receptor protein. […] Test compounds were added in 20.0 μL. The mixture was incubated at room temperature for 60 min. The incubation was stopped by rapid filtration. The bound ligand-receptor complex was filtered off on a 96 well unifilter with a Packard® Filtermate 196 Harvester. The bound complex caught on the filter disk was dried in a vacuum oven heated to 60° C. and the radioactivity measured by liquid scintillation with 40 μL Microscint-20 scintillant in a Packard TopCount® equipped with six (6) photomultiplier detectors.
# [5] = 10 mpk oral, 0.5 hour after refeeding
# [6] = 10 mpk oral, 2 hours after refeeding
# [7] = 10 mpk oral, 4 hours after refeeding
# [8] = 30 mpk oral, 0.5 hour after refeeding
# [9] = 30 mpk oral, 2 hours after refeeding
# [10] = 30 mpk oral, 4 hours after refeeding
# [11] = 50 mpk oral, 0.5 hour after refeeding
# [12] = 50 mpk oral, 2 hours after refeeding
# [13] = 50 mpk oral, 4 hours after refeeding
Compound,Ki [1],Emax [2],EC50 [2],further results
"NCC1COc2cccc(-c3ccccc3Cl)c2O1 (stereo not drawn) [Compound I-1, {[8-(2-Chlorophenyl)-2,3-dihydro-1,4-benzodioxin-2-yl]methyl}amine]",< 50 nM,60%,< 100 nM,"% Reduction food intake (vs vehicle) [3, 5]: 4 ± 8%; % Reduction food intake (vs vehicle) [3, 6]: 6 ± 8%; % Reduction food intake (vs vehicle) [3, 7]: 16 ± 8%; % Reduction food intake (vs vehicle) [3, 8]: 60 ± 12%; % Reduction food intake (vs vehicle) [3, 9]: 40 ± 8%; % Reduction food intake (vs vehicle) [3, 10]: 42 ± 5%; % Reduction food intake (vs vehicle) [3, 11]: 74 ± 17%; % Reduction food intake (vs vehicle) [3, 12]: 55 ± 13%; % Reduction food intake (vs vehicle) [3, 13]: 48 ± 13%"
COc1cc(CC(C)N)c(OC)cc1I (stereo not drawn) [[^125I] DOI],–,–,–,Kd [4]: 0.4 nM
"NC[C@H]1COc2cccc(-c3c(Cl)cccc3Cl)c2O1 [Compound I-46, {[(2S)-8-(2,6-Dichlorophenyl)-2,3-dihydro-1,4-benzodioxin-2-yl]methyl}amine]",< 50 nM,50%,< 100 nM,"% Reduction food intake (vs vehicle) ([3]; 1 mpk oral, 0.5 hour after refeeding): 0 ± 12%; % Reduction food intake (vs vehicle) ([3]; 1 mpk oral, 2 hours after refeeding): 0 ± 6%; % Reduction food intake (vs vehicle) ([3]; 1 mpk oral, 4 hours after refeeding): 1 ± 8%; % Reduction food intake (vs vehicle) ([3]; 3 mpk oral, 0.5 hour after refeeding): 12 ± 8%; % Reduction food intake (vs vehicle) ([3]; 3 mpk oral, 2 hours after refeeding): 11 ± 5%; % Reduction food intake (vs vehicle) ([3]; 3 mpk oral, 4 hours after refeeding): 14 ± 7%; % Reduction food intake (vs vehicle) [3, 5]: 74 ± 7%; % Reduction food intake (vs vehicle) [3, 6]: 68 ± 5%; % Reduction food intake (vs vehicle) [3, 7]: 51 ± 4%; % Reduction food intake (vs vehicle) [3, 8]: 78 ± 14%; % Reduction food intake (vs vehicle) [3, 9]: 88 ± 8%; % Reduction food intake (vs vehicle) [3, 10]: 82 ± 7%; % Reduction food intake (vs vehicle) [3, 11]: 100 ± 11%; % Reduction food intake (vs vehicle) [3, 12]: 100 ± 5%; % Reduction food intake (vs vehicle) [3, 13]: 98 ± 4%"
"NCC1COc2cccc(-c3ccccc3C(F)(F)F)c2O1 (stereo not drawn) [Compound I-4, ({8-[2-(Trifluoromethyl)phenyl]-2,3-dihydro-1,4-benzodioxin-2-yl}methyl)amine]",< 50 nM,70%,< 100 nM,"% Reduction food intake (vs vehicle) [3, 5]: 9 ± 6%; % Reduction food intake (vs vehicle) [3, 6]: 5 ± 8%; % Reduction food intake (vs vehicle) [3, 7]: 2 ± 7%; % Reduction food intake (vs vehicle) [3, 8]: 29 ± 7%; % Reduction food intake (vs vehicle) [3, 9]: 14 ± 8%; % Reduction food intake (vs vehicle) [3, 10]: 0 ± 16%; % Reduction food intake (vs vehicle) [3, 11]: 56 ± 10%; % Reduction food intake (vs vehicle) [3, 12]: 27 ± 11%; % Reduction food intake (vs vehicle) [3, 13]: 8 ± 14%"
"Cc1ccccc1-c1cc(Cl)cc2c1OC(CN)O2 (stereo not drawn) [Compound I-91, [6-Chloro-4-(2-methyl-phenyl)-benzo[1,3]dioxol-2-yl]-methylamine]",< 50 nM,80%,< 100 nM,–
"CN(C)CC1COc2cccc(-c3ccc(Cl)cc3Cl)c2O1 (stereo not drawn) [Compound I-39, {[8-(2,4-Dichlorophenyl)-2,3-dihydro-1,4-benzodioxin-2-yl]methyl}dimethylamine]",< 50 nM,20%,100 to 500 nM,–
"Cc1cccc(C)c1-c1cccc2c1OC(CN)CO2 (stereo not drawn) [Compound I-12, {[8-(2,6-Dimethylphenyl)-2,3-dihydro-1,4-benzodioxin-2-yl]methyl}amine]",< 50 nM,70%,< 100 nM,–
"C[C@]1(CN)COc2cccc(-c3ccccc3Cl)c2O1 [Compound I-49, {[(2S)-8-(2-Chlorophenyl)-2-methyl-2,3-dihydro-1,4-benzodioxin-2-yl]methyl}amine]",< 50 nM,70%,> 500 nM,–
"Cc1ccc(C)c(-c2cccc3c2OC(CN)CO3)c1 (stereo not drawn) [Compound I-11, {[8-(2,5-Dimethylphenyl)-2,3-dihydro-1,4-benzodioxin-2-yl]methyl}amine]",> 200 nM,60%,100 to 500 nM,–
"Clc1ccc(-c2cccc3c2OC(CNCC2CC2)CO3)c(Cl)c1 (stereo not drawn) [Compound I-42, (Cyclopropylmethyl) {[8-(2,4-dichlorophenyl)-2,3-dihydro-1,4-benzodioxin-2-yl]methyl}amine]",> 200 nM,–,> 500 nM,–
"CNCC1COc2cccc(-c3ccccc3OC)c2O1 (stereo not drawn) [Compound I-19, {[8-(2-Methoxyphenyl)-2,3-dihydro-1,4-benzodioxin-2-yl]methyl}methylamine]",> 200 nM,20%,100 to 500 nM,–
"NC[C@H]1COc2ccc(F)c(-c3ccccc3Cl)c2O1 [Compound I-71, (2S)-[8-(2-Chloro-phenyl)-7-fluoro-2,3-dihydro-benzo[1,4]dioxin-2-yl]-methylamine]",< 50 nM,40%,< 100 nM,–
"CNCC1COc2cccc(-c3cc(Cl)ccc3OC)c2O1 (stereo not drawn) [Compound I-31, {[8-(5-Chloro-2-methoxyphenyl)-2,3-dihydro-1,4-benzodioxin-2-yl]methyl}methylamine]",> 200 nM,20%,100 to 500 nM,–
"Cc1ccccc1-c1cccc2c1OC(CN)CO2 (stereo not drawn) [Compound I-3, {[8-(2-Methylphenyl)-2,3-dihydro-1,4-benzodioxin-2-yl]methyl}amine]",< 50 nM,60%,< 100 nM,–
